Biological target: T1, enzyme alcohol dehydrogenase (Saccharomyces cerevisiae, UniProt P00330)
T1 construct: purchased Sigma Diagnostics 333-B
T1 sequence (P00330 1-348): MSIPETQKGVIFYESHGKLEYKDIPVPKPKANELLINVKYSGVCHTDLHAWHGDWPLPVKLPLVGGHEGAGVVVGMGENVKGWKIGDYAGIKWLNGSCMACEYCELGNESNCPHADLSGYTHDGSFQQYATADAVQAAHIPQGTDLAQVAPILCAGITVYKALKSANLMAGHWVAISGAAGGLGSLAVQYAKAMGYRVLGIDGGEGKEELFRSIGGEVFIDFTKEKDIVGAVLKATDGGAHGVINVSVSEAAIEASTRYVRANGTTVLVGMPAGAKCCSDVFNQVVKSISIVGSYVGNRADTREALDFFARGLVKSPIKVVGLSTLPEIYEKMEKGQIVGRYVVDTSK
Experiment: Test of inhibition of the activity of the enzyme alcohol dehydrogenase (Sigma Diagnostics kit ref. 333-B)
Type: biochemical
Details: inhibitor 10^-3 M in the final mixture; 10 μl ethanol solution 0.08% w/v; incubated 10 minutes at room temperature; reference = 100
Method: Test of Inhibition of the Activity of the Enzyme Alcohol Dehydrogenase
The inhibition of the activity of the enzyme alcohol dehydrogenase was determined using a Sigma Diagnostics kit (ref. 333-B).
3 ml of the Alcohol Reagent, 10 μl of ethanol solution (0.08% ethanol w/v ref. 330-20) and 10 μl of inhibitor solution in distilled water are incubated for 10 minutes at room temperature.
For each assay, a blank consisting of 3 ml of the Alcohol Reagent, 10 μl of distilled water and 10 μl of inhibitor solution in distilled water is prepared.
The inhibitors are diluted so as to be at a concentration of 10^−3 M in the final mixture.
After incubation of the mixture, 100 μl are taken up and read over a 10-minute interval at 340 nm. The readings are performed in 96-well UV microplates using a UV-visible multiwell spectrophotometer (Spectramax Plus—Molecular Devices) against the blank.
The inhibition results are expressed as a percentage of absorbance at 340 nm relative to a reference (no inhibitor in the mixture): […]

Row | Structure (SMILES) | percentage of absorbance at 340 nm relative to a reference (no inhibitor in the mixture) [%]
1 | OCC(Cl)(Cl)Cl [2,2,2-Trichloroethanol] | -12
2 | Cc1cn[nH]c1 [4-Methylpyrazole] | 35
3 | c1cn[nH]c1 [Pyrazole] | 16
4 | c1c[nH]cn1 [Imidazole] | 32
5 | CCn1nc(C)c(N)c1N [2-Ethyl-5-methyl-2H-3,4-diaminopyracole] | 31
